Tests used:
Experiment in all cases: relative viability (nuclei count vs DMSO), 5 days (fraction); higher = more cells survive
[1] = compound: C=CCn1c(=O)c2cnc(Nc3ccc(N4CCN(C)CC4)cc3)nc2n1-c1cccc(C(C)(C)O)n1 [Adavosertib] + CC(=O)c1c(C)c2cnc(Nc3ccc(N4CCNCC4)cn3)nc2n(C2CCCC2)c1=O [Palbociclib] (partner 0.5 µM)
Outline: (§1)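 Relative viability equals treated-well nuclei counts divided by vehicle-well nuclei counts. Counts came from 4× images of lung cancer cell lines grown in 1536-well plates for 5 days after pin-tool dosing on the day after seeding. Dosing used one drug alone or a fixed anchor-drug dose plus five library-drug doses (not always all listed) in √10 steps, and values are medians of duplicate plates.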

Nelarabine + Linsitinib = compound: COc1nc(N)nc2c1ncn2[C@@H]1O[C@H](CO)[C@@H](O)[C@@H]1O [Nelarabine] + C[C@]1(O)C[C@@H](c2nc(-c3ccc4ccc(-c5ccccc5)nc4c3)c3c(N)nccn32)C1 [Linsitinib] (partner 1 µM)
Outline: as §1

Adavosertib + Navitoclax = compound: C=CCn1c(=O)c2cnc(Nc3ccc(N4CCN(C)CC4)cc3)nc2n1-c1cccc(C(C)(C)O)n1 [Adavosertib] + CC1(C)CCC(c2ccc(Cl)cc2)=C(CN2CCN(c3ccc(C(=O)NS(=O)(=O)c4ccc(N[C@H](CCN5CCOCC5)CSc5ccccc5)c(S(=O)(=O)C(F)(F)F)c4)cc3)CC2)C1 [Navitoclax] (partner 0.5 µM)
Outline: as §1

Nelarabine + Crizotinib = compound: COc1nc(N)nc2c1ncn2[C@@H]1O[C@H](CO)[C@@H](O)[C@@H]1O [Nelarabine] + C[C@@H](Oc1cc(-c2cnn(C3CCNCC3)c2)cnc1N)c1c(Cl)ccc(F)c1Cl [Crizotinib] (partner 1 µM)
Outline: as §1

| Cell Line | relative viability ([1]; first compound 0.01 µM) | relative viability ([1]; first compound 0.03162 µM) | relative viability ([1]; first compound 0.1 µM) | relative viability ([1]; first compound 0.3162 µM) | relative viability (Nelarabine + Linsitinib; first compound 0.01 µM) | relative viability (Nelarabine + Linsitinib; first compound 0.03162 µM) | relative viability (Nelarabine + Linsitinib; first compound 0.1 µM) | relative viability (Nelarabine + Linsitinib; first compound 0.3162 µM) | relative viability (Nelarabine + Linsitinib; first compound 1 µM) | relative viability (Adavosertib + Navitoclax; first compound 0.01 µM) | relative viability (Adavosertib + Navitoclax; first compound 0.03162 µM) | relative viability (Adavosertib + Navitoclax; first compound 0.1 µM) | relative viability (Adavosertib + Navitoclax; first compound 0.3162 µM) | relative viability (Nelarabine + Crizotinib; first compound 0.01 µM) | relative viability (Nelarabine + Crizotinib; first compound 0.03162 µM) | relative viability (Nelarabine + Crizotinib; first compound 0.1 µM) | relative viability (Nelarabine + Crizotinib; first compound 0.3162 µM) | relative viability (Nelarabine + Crizotinib; first compound 1 µM) |
| --- | --- | --- | --- | --- | --- | --- | --- | --- | --- | --- | --- | --- | --- | --- | --- | --- | --- | --- |
| NCI-H1395 | 0.616 | 0.657 | 0.591 | 0.674 | 1.1 | 1.15 | 1.17 | 0.974 | 1.2 | 1.15 | 1.17 | 1.25 | 0.986 | – | – | – | – | – |
| NCI-H650 | 0.344 | 0.372 | 0.336 | 0.371 | 0.927 | 0.947 | 0.868 | 0.874 | 1 | – | – | – | – | 0.627 | 0.548 | 0.613 | 0.693 | 0.746 |
| NCI-H2342 | 0.5 | 0.526 | 0.509 | 0.566 | – | – | – | – | – | – | – | – | – | – | – | – | – | – |
| NCI-H1648 | 0.311 | 0.29 | 0.219 | 0.244 | – | – | – | – | – | – | – | – | – | – | – | – | – | – |
| ChaGo-K-1 | 0.884 | 0.949 | 1.01 | 0.885 | – | – | – | – | – | 0.84 | 0.877 | 0.934 | 0.729 | 1.11 | 1.01 | 1.32 | 1.23 | 1.17 |
| NCI-H1563 | – | – | – | – | 1.23 | 1.22 | 1.18 | 1.19 | 1.18 | – | – | – | – | 0.815 | 0.93 | 0.797 | 0.845 | 0.841 |
| NCI-H1650 | 0.295 | 0.34 | 0.289 | 0.293 | – | – | – | – | – | 1.15 | 1.26 | 1.25 | 1.1 | 1.07 | 0.809 | 0.999 | 0.981 | 0.847 |
| A549 | – | – | – | – | 0.714 | 0.622 | 0.585 | 0.523 | 0.642 | 1.21 | 1.26 | 1.26 | 0.901 | 0.735 | 0.666 | 0.742 | 0.803 | 0.671 |
| NCI-H522 | 1.02 | 1.1 | 1.21 | 1.06 | – | – | – | – | – | – | – | – | – | – | – | – | – | – |
| NCI-H2170 | 0.403 | 0.419 | 0.399 | 0.36 | – | – | – | – | – | 0.605 | 0.57 | 0.482 | 0.313 | 1.47 | 1.01 | 1.24 | 1.35 | 1.26 |
| NCI-H1703 | – | – | – | – | 1.05 | 0.66 | 0.666 | 0.541 | 0.834 | 1.27 | 0.877 | 1.11 | 0.157 | 0.577 | 0.701 | 0.78 | 1.01 | 0.594 |
| NCI-H1299 | – | – | – | – | 1.19 | 1.02 | 1.05 | 1.04 | 0.963 | 1.08 | 1.03 | 1.06 | 1.06 | 1.04 | 1.03 | 0.963 | 0.979 | 0.966 |
| NCI-H596 | – | – | – | – | 1.15 | 1.2 | 1.07 | 1.16 | 1.04 | 0.897 | 1.01 | 1.06 | 0.742 | 0.948 | 1.15 | 0.96 | 1.04 | 1.12 |
| ABC-1 | 0.736 | 0.745 | 0.777 | 0.896 | 0.955 | 1.19 | 0.83 | 0.809 | 0.723 | – | – | – | – | 1.07 | 1.09 | 0.994 | 1.14 | 0.976 |
